In patent US7175981B2, “Method of diagnosing stage or aggressiveness of breast and prostate cancer based on levels of fatty acid binding proteins” (The United States of America as represented by the …, priority 1998, dated 2007):
“Also recorded” adds a separate entry of the source. Where two headings read alike, the source gives them in different places.

Experiments:
[1] = system: multi-drug resistant MCF-7 ADR human breast cancer cells; assay: MCF-7 proliferation assay, multi-drug resistant cells (cytofluor); assay type: cell-based; conditions: ADR MCF-7 breast cancer cells
Text: (§1) Tables 1 and 2 show the concentrations required for IC50 inhibition in cultures of wild type and multi-drug resistant MCF-7 human breast cancer cells, respectively. These tables show polyoxotungstates used on MCF-7 proliferation assay.

[2] = system: wild type MCF-7 human breast cancer cells; assay: MCF-7 proliferation assay, wild type cells (cytofluor); assay type: cell-based; conditions: WT MCF-7 breast cancer cells
Text: as §1

A-FABP [3] = assay: RT-PCR of A-FABP expression in LNCAP cells grown with drug; assay type: cell-based, human; conditions: 1 uM, 48 hr, listed as HPA-Na
Method: (§2) FIG. 18 is a graph showing LNCAP cells grown in the presence of 1 uM HPA-Na for 48 hr. At that time, cells were harvested, RNA prepared by the method of TRIZOL, and levels of various FABPs were measured by RT-PCR.
(§3) For RT-PCR, equal amounts of RNA were used for the reverse transcriptase reaction to make cDNA. The cDNA was then used for the PCR reaction using specific primers for the different fatty acid binding proteins. Also, PCR was performed for genes such as Actin whose level stays generally the same in all the samples. The PCR products were resolved on agarose gel and the picture under UV was saved in the computer as a TIFF file. Using the NIH Image Program 1.6–1, gel optical units were digitized and obtained for each band observed. The values of the FABP PCR fragments were therefore normalized to the Actin values for each sample. In the figures, the data is represented in Optical Density Units versus the FABP and cell type from Breast and Prostate tissues.
(§4) The RNA was isolated using the Trizol method and RT-PCR analysis of the proteins was performed by using primers specific for each FABP. […] The method of quantitation of PCR product was as follows: for internal quantitation control actin primers was used, all the gels were scanned in a gel scanner and digitized using the NIH-Image program for quantitation. […]

E-FABP [4] = assay: RT-PCR of E-FABP expression in MCF-7 cells grown with drug; assay type: cell-based, human; conditions: 1 uM, 48 hr
Method: (§5) FIGS. 17a and 17b are graphs showing MCF-7 cells grown in the presence of 1 uM HPA-Na for 48 hr and RNA isolated for FABP measurement.
as §3
as §4, with “FABP. Equal amount of RNA was used for RT-PCR and PCR master mix was used to avoid any handling errors.” for “FABP.”

A-FABP [5] = assay: RT-PCR of A-FABP expression in MCF-7 cells grown with drug; assay type: cell-based, human; conditions: 1 uM, 48 hr
Method: as §5, §3
as §4, with “FABP. Equal amount of RNA was used for RT-PCR and PCR master mix was used to avoid any handling errors.” for “FABP.”

LNCAP prostate cells = assay: Growth of prostate cancer cells (Cytofluor); assay type: cell-based, human; conditions: prostate (and breast) cancer cells
[6] = Toxicity in mice (body weight, necropsy); assay type: in vivo; conditions: subcutaneously, weekly for 10 weeks
Method: We have identified a class of heteropolyanions that have anticancer activity. This class consists of metal ion derivatives of polyoxotungstate, hereinafter referred to as HPA. These heteropolyanions (HPA) are synthesized by methods outlined in Heteropoly and Isopoly Oxometalates, Michael Thor Pope, Springer Verlag, Berlin, Germany 1983. They are water soluble and stable at room temperature and are effective at very low concentrations (1 μM) in cell cultures. […] Oral and intramuscular administration were also tested. Drugs were dissolved in aqueous solutions for administration. Preferred HPA drugs are HPA-Na and HPA-Sm.

brain-FABP = assay: RT-PCR of brain-FABP expression in MCF-7 cells grown with drug; assay type: cell-based, human; conditions: 1 uM, 48 hr
Method: as §5, §3
as §4, with “FABP. Equal amount of RNA was used for RT-PCR and PCR master mix was used to avoid any handling errors.” for “FABP.”

I-FABP = assay: RT-PCR of I-FABP expression in LNCAP cells grown with drug; assay type: cell-based, human; conditions: in the presence of drug, listed as HPA-Na
Method: as §2, §3, §4

E-FABP [7] = assay: RT-PCR of E-FABP expression in LNCAP cells grown with drug; assay type: cell-based, human; conditions: 1 uM
Method: as §2, §3, §4

[8] = experiment 1, read-out: IC50 (Exp. 1)
[9] = experiment 2, read-out: IC50 (Exp. #2)

K12[TbP5W30O110] · nH2O gave an IC50 [1, 8] of 3.5 µM, an IC50 [1, 9] of 4.9 µM and an IC50 [2, 8] of 1 µM. For the same substance, the IC50 [2, 9] was 8 µM.

Substance K12[BiP5W30O110] · nH2O has an IC50 [1, 8] of 3 µM, an IC50 [1, 9] of 2.5 µM and an IC50 [2, 9] of 5 µM.

With K12[GdP5W30O110] · nH2O the IC50 [1, 8] was 4.3 µM, the IC50 [1, 9] was 4.6 µM and the IC50 [2, 8] was 2 µM. The IC50 [2, 9] was 8 µM.

Substance K12[LuP5W30O110] · nH2O has an IC50 [1, 8] of 4.5 µM, an IC50 [1, 9] of 5.5 µM and an IC50 [2, 8] of 1 µM. It also gave an IC50 [2, 9] of 5 µM.

With K12[UP5W30O110] · nH2O the IC50 [1, 8] was 5.8 µM, the IC50 [1, 9] was 4.8 µM and the IC50 [2, 8] was 1 µM. The IC50 [2, 9] was 10 µM.

For K13[CaP5W30O110] · nH2O, the IC50 [1, 8] was 3.8 µM, the IC50 [1, 9] was 6.8 µM and the IC50 [2, 8] was 4.5 µM. The IC50 [2, 9] was 5 µM.

Work on K12[DyP5W30O110] · nH2O yielded an IC50 [1, 8] of 3.8 µM, an IC50 [1, 9] of 2.3 µM and an IC50 [2, 8] of 4.3 µM. The IC50 [2, 9] was 5 µM.

With K12.5Na1.5[NaP5W30O110] · nH2O the “change in level of A-FABP” value (A-FABP [3]) was “increased the levels of A-FABP in LNCAP to a level similar to the normal values; also recorded: increasing A-FABP; also recorded: markedly elevated”, the “change in level of E-FABP” value (E-FABP [4]) was “dramatically increased” and the “change in level of A-FABP” value (A-FABP [5]) was “dramatically increased”. The “effect on proliferation of cancer cells” value (LNCAP prostate cells) was “blocked”, the “toxicity in mice (weights, necropsy)” value [6] was “no indications of toxicity was observed” and the IC50 [1, 9] was 2.1 µM. For the same substance, the “change in level of brain-FABP” value (brain-FABP) was “decreased significantly”, the IC50 [2, 8] was 3.8 µM and the IC50 [2, 9] was 3.5 µM. The “change in level of I-FABP” value (I-FABP) was “decreasing I-FABP; also recorded: decrease” and the “change in level of E-FABP” value (E-FABP [7]) was “altered in a similar manner”.

For K12[ErP5W30O110] · nH2O, the IC50 [1, 8] was 4 µM, the IC50 [1, 9] was 1 µM and the IC50 [2, 8] was 4.3 µM. It also gave an IC50 [2, 9] of 6 µM.

With K12[EuP5W30O110] · nH2O the IC50 [1, 8] was 0.25 µM, the IC50 [1, 9] was 3.8 µM and the IC50 [2, 9] was 4.5 µM.

For K12[TmP5W30O110] · nH2O, the IC50 [1, 8] was 4 µM, the IC50 [1, 9] was 6 µM and the IC50 [2, 8] was 0.25 µM. For the same substance, the IC50 [2, 9] was 10 µM.

Substance K12[HoP5W30O110] · nH2O has an IC50 [1, 8] of 0.25 µM, an IC50 [1, 9] of 4 µM and an IC50 [2, 8] of 3 µM. It also gave an IC50 [2, 9] of 4.5 µM.

K12[YbP5W30O110] · nH2O gave an IC50 [1, 8] of 5 µM, an IC50 [1, 9] of 6.3 µM and an IC50 [2, 8] of 3.8 µM. It also gave an IC50 [2, 9] of 3.7 µM.

K12[CeP5W30O110] · nH2O gave an IC50 [1, 8] of 3.8 µM, an IC50 [1, 9] of 3 µM and an IC50 [2, 8] of 4.3 µM. The IC50 [2, 9] was 5 µM.

In the case of K12[SmP5W30O110] · nH2O, the IC50 [1, 8] is reported as 3.8 µM, the IC50 [1, 9] is reported as 4.1 µM and the IC50 [2, 8] is reported as 0.5 µM. It also gave an IC50 [2, 9] of 2.5 µM.
